According to patent US4410512A, “Combinations having synergistic pituitary growth hormone releasing activity” (Beckman Instruments, Inc., priority 1981, dated 1983):
Square brackets hold non-standard residues; d marks the D form. Peptide text beside a SMILES is read from it.

Tested on: pituitaries
Experiment: In vitro growth hormone release study (incubated rat pituitaries, GH by RIA)
Assay type: cell-based
Settings: mean of 9 assays ± SEM
Protocol: Female rats of the CD-1 strain were housed in a constant temperature room at 24° C. with 14 hours light and 10 hours darkness. The rats were fed Purina brand rat chow ab libitum. All studies were started between 0800 and 1000 hours.
Pituitaries were removed from 20 day old female rats. In each polytetrafluoroethylene beaker (10 ml) was incubated two pituitaries at 36° C. in 1 ml of lactated Ringer's solution in a Dubnoff Shaker (90 cycles/min.). All medium in each beaker was removed each hour (e.g., P1, P2, I3, I4, I5) and then fresh medium was added back to each beaker. Each medium removed was assayed for GH, in duplicate, by a standard radioimmunoassay (RIA).
The growth hormone agonist of Example 1 was not added to the incubation mediums employed during the first hour of the incubation period (P1) or to the incubation mediums employed during the second hour of the incubation period (P2). The growth hormone agonist of Example 1 was dissolved in dimethylsulfoxide (DMSO; 10:1, agonist:DMSO), added to each incubation medium employed during the third hour of the incubation period (I3), to each medium employed during the fourth hour of the incubation period (I4), and to each medium employed during the fifth hour of the incubation period (I5). The release of growth hormone was recorded as ΔGH and calculated by subtracting the amount of GH released at P2 from that released at I3, I4, and I5. The agonist activity was determined from the release at I3, I4, and I5.

| Compound | ΔGH (peptide dosage 1 ng/ml incubation medium) [ng/ml incubation medium] | ΔGH (peptide dosage 3 ng/ml incubation medium) [ng/ml incubation medium] | ΔGH (peptide dosage 10 ng/ml incubation medium) | ΔGH (zeranol dosage 300 ng/ml incubation medium, pituitaries of 20 day old female rats, I3-I5 minus P2) [ng/ml incubation medium] | ΔGH (zeranol dosage 3,000 ng/ml incubation medium) [ng/ml incubation medium] | ΔGH (zeranol dosage 30,000 ng/ml incubation medium) [ng/ml incubation medium] | ΔGH (zeranol dosage 100,000 ng/ml incubation medium) [ng/ml incubation medium] |
| --- | --- | --- | --- | --- | --- | --- | --- |
| C[C@H](NC(=O)[C@@H](Cc1c[nH]c2ccccc12)NC(=O)[C@@H](N)Cc1c[nH]cn1)C(=O)N[C@@H](Cc1c[nH]c2ccccc12)C(=O)N[C@H](Cc1ccccc1)C(=O)N[C@@H](CCCCN)C(N)=O [H2 -His-D-Trp-Ala-Trp-D-Phe-Lys-NH2] (H-H[dW]AW[dF]K-NH2) | 887 ± 98 | 821 ± 138 | 2,759 ± 315 ng/ml incubation medium |  |  |  |  |
| C[C@H]1CCC[C@H](O)CCCCCc2cc(O)cc(O)c2C(=O)O1 [Zeranol, zeranol] |  |  |  | 83 ± 63 | 87 ± 59 | 683 ± 187 | -133 ± 98 |
